Results reported in patent US20250304576A1 (Cancer Research Technology Limited, priority 2022, published 2025).

What was measured:
Recombinant IKKβ = target: T1, Recombinant IKKβ (Homo sapiens, UniProt O14920); test: DELFIA IKKβ kinase assay (apparent Ki, Cheng-Prusoff); assay type: biochemical
T1 construct: purchased Millipore, Dundee, UK
T1 sequence (O14920 1-756): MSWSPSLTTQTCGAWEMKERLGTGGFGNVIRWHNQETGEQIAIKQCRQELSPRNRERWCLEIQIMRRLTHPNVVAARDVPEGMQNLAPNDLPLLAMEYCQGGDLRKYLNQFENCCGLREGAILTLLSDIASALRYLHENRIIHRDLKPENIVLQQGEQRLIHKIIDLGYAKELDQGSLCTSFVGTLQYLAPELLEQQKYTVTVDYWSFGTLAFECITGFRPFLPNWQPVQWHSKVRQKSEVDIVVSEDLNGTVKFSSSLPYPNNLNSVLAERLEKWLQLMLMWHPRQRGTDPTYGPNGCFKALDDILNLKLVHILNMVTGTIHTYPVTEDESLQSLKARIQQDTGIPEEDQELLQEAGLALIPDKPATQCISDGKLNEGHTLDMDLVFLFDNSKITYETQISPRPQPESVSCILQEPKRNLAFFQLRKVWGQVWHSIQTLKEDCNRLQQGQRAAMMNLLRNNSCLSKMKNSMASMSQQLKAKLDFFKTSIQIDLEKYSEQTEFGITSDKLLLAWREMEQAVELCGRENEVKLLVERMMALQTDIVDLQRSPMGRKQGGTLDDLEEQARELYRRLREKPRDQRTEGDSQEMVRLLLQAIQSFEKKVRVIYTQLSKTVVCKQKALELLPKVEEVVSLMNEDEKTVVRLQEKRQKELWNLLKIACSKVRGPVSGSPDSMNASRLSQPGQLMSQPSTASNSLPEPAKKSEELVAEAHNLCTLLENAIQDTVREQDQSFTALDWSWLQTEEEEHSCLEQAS
Outline: (§1)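 Recombinant IKKα or IKKβ (37 nM) with 0.375 μM biotinylated IκB-α (Ser32) peptide and 40 μM ATP in 40 mM Tris-HCl pH 7.5, 20 mM MgCl2, 60 min at 30° C. Phospho-substrate captured on streptavidin and detected by anti-phospho-IκB-α plus europium anti-mouse IgG time-resolved fluorescence; apparent Ki via Cheng-Prusoff.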

Recombinant IKKα = target: T2, Recombinant IKKα (Homo sapiens, UniProt O15111); test: DELFIA IKKα kinase assay (apparent Ki, Cheng-Prusoff); assay type: biochemical
T2 construct: purchased Millipore, Dundee, UK
T2 sequence (O15111 1-745): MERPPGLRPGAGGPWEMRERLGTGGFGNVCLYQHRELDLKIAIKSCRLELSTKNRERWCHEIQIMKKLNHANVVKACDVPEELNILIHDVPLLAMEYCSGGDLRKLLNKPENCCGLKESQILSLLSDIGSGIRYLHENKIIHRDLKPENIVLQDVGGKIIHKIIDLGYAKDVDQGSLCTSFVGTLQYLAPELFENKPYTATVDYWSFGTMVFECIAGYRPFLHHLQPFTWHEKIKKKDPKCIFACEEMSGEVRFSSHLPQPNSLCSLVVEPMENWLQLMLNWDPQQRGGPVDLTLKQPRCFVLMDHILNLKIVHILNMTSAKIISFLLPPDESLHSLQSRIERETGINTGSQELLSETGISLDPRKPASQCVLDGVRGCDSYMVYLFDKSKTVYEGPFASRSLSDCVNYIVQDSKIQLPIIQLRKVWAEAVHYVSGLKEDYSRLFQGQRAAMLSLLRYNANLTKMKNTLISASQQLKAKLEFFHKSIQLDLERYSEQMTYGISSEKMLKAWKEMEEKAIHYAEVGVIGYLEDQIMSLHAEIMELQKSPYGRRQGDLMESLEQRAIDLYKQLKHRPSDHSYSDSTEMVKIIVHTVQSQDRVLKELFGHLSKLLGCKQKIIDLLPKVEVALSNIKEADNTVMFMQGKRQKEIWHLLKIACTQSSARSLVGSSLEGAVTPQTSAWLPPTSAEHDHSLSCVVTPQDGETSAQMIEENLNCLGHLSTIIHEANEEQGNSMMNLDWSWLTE
Outline: as §1

[1] = DELFIA assay (first line of an example)
[2] = non-italicised figure: DELFIA assay

Row | SMILES | Ki (Recombinant IKKβ; [1]) [nM] | Ki (Recombinant IKKα; [1]) [nM] | Ki (Recombinant IKKβ; [2]) [nM] | Ki (Recombinant IKKα; [2]) [nM]
1 | CC(C)(C)C#Cc1cc(-c2ccnc(NS(C)(=O)=O)c2)cc2c(N)n[nH]c12 [Example 194, N-(4-(3-amino-7-(3,3-dimethylbut-1-yn-1-yl)-1H-indazol-5-yl)pyridin-2-yl)methanesulfonamide] | 4900 | 373 |  | 
2 | CC(C)CCNc1cc(-c2ccc3[nH]nc(N)c3c2)ccn1 [Example 16, 5-(2-(Isopentylamino)pyridin-4-yl)-1H-indazol-3-amine] |  |  | 838 | 65
3 | CC(C)(C)C#Cc1cc(-c2ccnc3[nH]c(CC4CCCCC4)cc23)cc2c(N)n[nH]c12 [Example 278, 5-(2-(Cyclohexylmethyl)-1H-pyrrolo[2,3-b]pyridin-4-yl)-7-(3,3-dimethylbut-1-yn-1-yl)-1H-indazol-3-amine] | > 10000 | 380 |  | 
4 | CC(C)(C)C#Cc1cc(-c2ccnc(N)c2F)cc2c(N)n[nH]c12 [Example 149, 5-(2-Amino-3-fluoropyridin-4-yl)-7-(3,3-dimethylbut-1-yn-1-yl)-1H-indazol-3-amine] |  |  | 220 | 8
5 | Nc1n[nH]c2ccc(-c3ccnc(NC4CCCCC4)c3)cc12 [Example 18, 5-(2-(Cyclohexylamino)pyridine-4-yl)-1H-indazol-3-amine] |  |  | > 10000 | 571
6 | Cc1cc(-c2ccnc(N)c2)cc2c(N)n[nH]c12 [Example 2, 5-(2-Aminopyridin-4-yl)-7-methyl-1H-indazol-3-amine] |  |  | 461 | 72
7 | Cc1n[nH]cc1Nc1cc(-c2cc(C#CC(C)(C)C)c3[nH]nc(N)c3c2)ccn1 [Example 313, 7-(3,3-Dimethylbut-1-yn-1-yl)-5-(2-((3-methyl-1H-pyrazol-4-yl)amino)pyridin-4-yl)-1H-indazol-3-amine] | 940 | 24 |  | 
8 | Nc1cc(-c2cc(-c3ccccc3Cl)c3[nH]nc(N)c3c2)ccn1 [Example 124, 5-(2-Aminopyridin-4-yl)-7-(2-chlorophenyl)-1H-indazol-3-amine] |  |  | 1760 | 224
9 | COCCCNCc1cc2c(-c3ccc4[nH]nc(N)c4c3)ccnc2[nH]1 [Example 256, 5-(2-(((3-methoxypropyl)amino)methyl)-1H-pyrrolo[2,3-b]pyridine-4-yl)-1H-indazol-3-amine] | 2560 | 46 |  | 
10 | CC(C)(C)C#Cc1cc(-c2cc(N)ncc2F)cc2c(N)n[nH]c12 [Example 148, 5-(2-Amino-5-fluoropyridin-4-yl)-7-(3,3-dimethylbut-1-yn-1-yl)-1H-indazol-3-amine] |  |  | 2330 | 23
11 | CC(C)(C)c1ccc(NC(=O)Nc2cc(-c3ccc4[nH]nc(N)c4c3)ccn2)cc1 [Example 64, 1-(4-(3-Amino-1H-indazol-5-yl)pyridin-2-yl)-3-(4-(tert-butyl)phenyl)urea] |  |  | 2900 | 76
12 | COc1ccccc1C#Cc1c(-c2ccc3[nH]nc(N)c3c2)ccnc1N [Example 81, 5-(2-Amino-3-((2-methoxyphenyl)ethynyl)pyridine-4-yl)-1H-indazol-3-amine] |  |  | 484 | 15
13 | Nc1n[nH]c2ccc(-c3ccnc4[nH]c(CNc5ccccc5COc5ccccc5)cc34)cc12 [Example 253, 5-(2-(((2-(Benzyloxy)phenyl)amino)methyl)-1H-pyrrolo[2,3-b]342yridine-4-yl)-1H-indazol-3-amine] | 330 | 5 |  | 
14 | Nc1cc(-c2cc(-c3ccc(CN4CCOCC4)cc3)c3[nH]nc(N)c3c2)ccn1 [Example 122, 5-(2-Aminopyridin-4-yl)-7-(4-(morpholinomethyl)phenyl)-1H-indazol-3-amine] |  |  | 1260 | 52
15 | Nc1cc(-c2cc(C#Cc3ccccc3)c3[nH]nc(N)c3c2)ccn1 [Example 138, 5-(2-Aminopyridin-4-yl)-7-(phenylethynyl)-1H-indazol-3-amine] |  |  | 5030 | 81
16 | Nc1n[nH]c2ccc(-c3ccnc(NCCN4CCOCC4)c3)cc12 [Example 30, 5-(2-((2-Morpholinoethyl)amino)pyridine-4-yl)-1H-indazol-3-amine] |  |  | 377 | 340
